Common to all, as to format: functional
Assay [1] is filed under the species Mus musculus. Briefly: Analgesic activity in mice by the tail-flick method.
For assay [2], the species on record is Mus musculus. Briefly: Analgesic activity in mice by the acetic acid writhing assay.
For assay [3], the species on record is Mus musculus. In words: Compound was tested for antagonist activity against morphine sulfate by the mouse tail-flick method.
Assay [4] is filed under the species Mus musculus. Briefly: Analgesic activity in mice by the tail-flick method, activity expressed as ED50.

Each structure is given as a SMILES string.

In the case of `CCOC(=O)C1(c2ccc(O)cc2)CCCN(CC2CC2)C1.Cl` (configuration not stated), the 50% effective dose (ED50) worked out at 100 µmol/kg in the assay listed under Mus musculus [1] and 4.65 µmol/kg in the assay filed under Mus musculus [2]. The molecule further displayed an AD50 in the assay filed under Mus musculus [3] of over 294 µM/kg.
The molecule `C=CCN1CC[C@]23c4c5ccc(O)c4O[C@H]2C(=O)CC[C@@]3(O)[C@H]1C5` [NALOXONE] gave a median effective dose (ED50) in the assay filed under Mus musculus [1] of 0.08 µmol/kg.
In the case of `CN1CC[C@]23c4c5ccc(O)c4O[C@H]2[C@@H](O)C=C[C@H]3[C@H]1C5` [MORPHINE], the figures for the 50% effective dose (ED50) in the assay filed under Mus musculus [1] and in the assay filed under Mus musculus [2] were 4.9 µmol/kg and 0.72 µmol/kg, respectively.
As to `CCCN1CCCC(C(=O)OCC)(c2ccc(O)cc2)C1.Cl` (configuration not stated), the 50% effective dose (ED50) in the assay listed under Mus musculus [1] is over 305 µmol/kg; in the assay listed under Mus musculus [2] it was 62.5 µmol/kg. In the assay filed under Mus musculus [3], this molecule registered an AD50 of 140 µM/kg.
The matching figures for `C=CCN1CCCC(C(=O)OCC)(c2cccc(O)c2)C1.O=P(O)(O)O` (configuration not stated): over 229 µmol/kg, 7.22 µmol/kg and over 92 µM/kg.
With `Br.CCOC(=O)C1(c2cccc(O)c2)CCCN(C)C1` (configuration not stated), the 50% effective dose (ED50) in the assay filed under Mus musculus [2] is 5.66 µmol/kg; in the assay filed under Mus musculus [4], over 290 µmol/kg. For the same molecule, the AD50 in the assay listed under Mus musculus [3] was 24.4 µM/kg.
For the molecule `C=CCN1CCCC(C(=O)OCC)(c2ccc(O)cc2)C1.Cl` (configuration not stated), the 50% effective dose (ED50) in the assay filed under Mus musculus [1] is over 307 µmol/kg; in the assay filed under Mus musculus [2], 10.4 µmol/kg. Besides, in the assay filed under Mus musculus [3], the AD50 was over 307 µM/kg.
The corresponding values for `CCCN1CCCC(C(=O)OCC)(c2cccc(O)c2)C1.O=P(O)(O)O` (configuration not stated) are over 91 µmol/kg, 5.59 µmol/kg and 59.3 µM/kg.
The corresponding values for `Br.CCOC(=O)C1(c2ccc(O)cc2)CCCN(C)C1` (configuration not stated) are over 290 µmol/kg, 22.9 µmol/kg and over 290 µM/kg.
For `Br.CCOC(=O)C1(c2cccc(O)c2)CCCN(CC2CC2)C1` (configuration not stated), the values for the ED50 in the assay listed under Mus musculus [1] and in the assay listed under Mus musculus [2] were 68 µmol/kg and 4 µmol/kg, respectively. Also, the AD50 in the assay listed under Mus musculus [3] was 18.8 µM/kg.

The record behind these values is ChEMBL document CHEMBL1121788, “Structure-activity studies on narcotic antagonists. 2. N-substituted ethyl 3-(m- or p-hydroxyphenyl) nipecotates” (1981).
